Results published in patent EP2790511B1 (Merck Sharp & Dohme Corp., priority 2011, dated 2013).
Read-outs that look alike come from different tables or passages of the source.

Target: T1, hROMK (hKir1.1) (Homo sapiens, UniProt P48048)
T1 construct: expressed in transfected cells
T1 sequence (P48048 1-391): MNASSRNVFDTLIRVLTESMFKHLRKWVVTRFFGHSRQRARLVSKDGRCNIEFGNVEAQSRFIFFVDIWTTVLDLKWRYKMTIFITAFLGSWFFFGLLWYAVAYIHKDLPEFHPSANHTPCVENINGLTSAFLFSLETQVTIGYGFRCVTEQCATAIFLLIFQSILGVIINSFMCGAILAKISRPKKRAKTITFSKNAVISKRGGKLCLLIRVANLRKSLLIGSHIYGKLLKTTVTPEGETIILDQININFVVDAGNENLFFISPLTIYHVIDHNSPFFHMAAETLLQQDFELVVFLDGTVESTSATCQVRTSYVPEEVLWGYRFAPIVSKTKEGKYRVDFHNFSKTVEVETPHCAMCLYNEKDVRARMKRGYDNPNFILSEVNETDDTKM
Assay: Thallium Flux Assay
Format: cell-based
Procedure, shortened: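 HEK293 cells stably expressing hROMK, loaded with FluxOR dye 90 min at ambient temperature, then compound 30 min with 0.3 mM ouabain in probenecid buffer pH 7.4.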

[1] = HEK293 cells stably expressing hROMK (hKir1.1), FLIPR-Tetra, read-out: Thallium Flux IC50

SMILES	IC50 [1] [nM]	IC50 (Thallium Flux IC50) [nM]
Cc1c(C#N)cccc1[C@@H]1CN2CCN(C(=O)Cc3cnc(-n4cnnn4)nc3)C[C@H]2CO1 [Example 17, 2-methyl-3-[(3R,9aS)-8-{[2-(1H-tetrazol-1-yl)pyrimidin-5-yl]acetyl}octahydropyrazino[2,1-c][1,4]oxazin-3-yl]benzonitrile]	160	–
N#Cc1c(F)ccc([C@@H]2CN3CCN(C(=O)Cc4cnc(-n5cnnn5)nc4)C[C@H]3CO2)c1Cl [Example 136, 2-chloro-6-fluoro-3-[(3R,9aS)-8-{[2-(1H-tetrazol-1-yl)pyrimidin-5-yl]acetyl}octahydropyrazino[2,1-c][1,4]oxazin-3-yl]benzonitrile]	–	40
Cc1c([C@H]2CN3CCN(C(=O)Cc4cnc(-n5cnnn5)nc4C(F)(F)F)C[C@H]3CO2)ccc(F)c1C#N [Example 158, 6-fluoro-2-methyl-3-[(3S,9aS)-8-{[2-(1H-tetrazol-1-yl)-4-(trifluoromethyl)pyrimidin-5-yl]acetyl}octahydropyrazino[2,1-c][1,4]oxazin-3-yl]benzonitrile]	200	–
N#Cc1c(F)cc([C@H]2CN3CCN(C(=O)Cc4ccc(-n5cnnn5)nc4)C[C@H]3CO2)cc1F [Example 109, 2,6-difluoro-4-[(3S,9aS)-8-{[6-(1H-tetrazol-1-yl)pyridin-3-yl]acetyl}octahydropyrazino[2,1-c][1,4]oxazin-3-yl]benzonitrile]	190	–
C[C@@H]1Cc2cc([C@@H]3CN4CCN(C(=O)Cc5ccc(-n6cnnn6)nc5)C[C@H]4CN3)ccc2C(=O)O1 [Example 196, (3R)-3-methyl-6-[(3R,9aR)-8-{[6-(1H-tetrazol-1-yl)pyridin-3-yl]acetyl}octahydro-2H-pyrazino[1,2-a]pyrazin-3-yl]-3,4-dihydro-1H-isochromen-1-one]	230	–
Cc1nc(-n2cnnn2)nc(C)c1CC(=O)N1CCN2C[C@H](c3ccc(F)c(C#N)c3C)OC[C@H]2C1 [Example 151, 3-[(3S,9aR)-8-{[4,6-dimethyl-2-(1H-tetrazol-1-yl)pyrimidin-5-yl]acetyl}octahydropyrazino[2,1-c][1,4]oxazin-3-yl]-6-fluoro-2-methylbenzonitrile]	–	300
C[C@@H]1Cc2cc([C@@H]3CN4CCN(C(=O)Cc5cnc(-n6cnnn6)nc5)C[C@H]4CO3)ccc2C(=O)O1 [Example 19]	–	160
Cc1c([C@H]2CN3CCN(C(=O)Cc4cnc(-n5cnnn5)c(F)c4)C[C@H]3CO2)ccc(F)c1C#N [Example 149, 6-fluoro-3-[(3S,9aS)-8-{[5-fluoro-6-(1H-tetrazol-1-yl)pyridin-3-yl]acetyl}octahydropyrazino[2,1-c][1,4]oxazin-3-yl]-2-methylbenzonitrile]	130	–
N#Cc1c(F)cc([C@@H]2CN3CCN(C(=O)Cc4cnc(-n5cnnn5)nc4)C[C@@H]3CO2)cc1F [Example 115, 2,6-difluoro-4-[(3R,9aR)-8-{[2-(1H-tetrazol-1-yl)pyrimidin-5-yl]acetyl}octahydropyrazino[2,1-c][1,4]oxazin-3-yl]benzonitrile]	–	270
Cc1c([C@@H]2CN3CCN(C(=O)Nc4ccc(-n5cnnn5)cn4)C[C@@H]3CO2)ccc(F)c1C#N [Example 200, (3R,9aR)-3-(3-cyano-4-fluoro-2-methylphenyl)-N-[5-(1H-tetrazol-1-yl)pyridin-2-yl]hexahydropyrazino[2,1-c][1,4]oxazine-8(1H)-carboxamide]	250	–
Cc1c([C@H]2CN3CCN(C(=O)Cc4cnc(-n5cnnn5)nc4)C[C@H]3CN2)ccc(F)c1C#N [Example 189, 3-((3S,9aR)-8-(2-(2-(1H-tetrazol-1-yl)pyrimidin-5-yl)acetyl)octahydro-1H-pyrazino[1,2-a]pyrazin-3-yl)-6-fluoro-2-methylbenzonitrile]	120	–
Cc1cc([C@@H]2CN3CCN(C(=O)Cc4ccc(-n5cnnn5)nc4)C[C@@H]3CO2)c(C)c(C#N)c1F [Example 174, 2-fluoro-3,6-dimethyl-5-[(3R,9aR)-8-{[6-(1H-tetrazol-1-vl)pvridin-3-yl]acetyl}octahydropyrazino[2,1-c][1,4]oxazin-3-yl]benzonitrile]	350	–
Cc1c([C@@H]2CN3CCN(C(=O)Cc4ccc(-n5cnnn5)nc4)C[C@@H]3CCO2)ccc(F)c1C#N (single isomer, unassigned) [Example 170]	–	240
Cc1cc(-n2cnnn2)ncc1CC(=O)N1CCN2C[C@H](c3ccc(F)c(C#N)c3C)OC[C@@H]2C1 [Example 43, 6-fluoro-2-methyl-3-[(3S,9aS)-8-{[4-methyl-6-(1H-tetrazol-1-vl)pvridin-3-yl]acetyl}octahydropyrazino[2,1-c][1,4]oxazin-3-yl]benzonitrile]	–	90
Cc1cc(-n2cnnn2)ncc1CC(=O)N1CCN2C[C@H](c3ccc4c(c3C)COC4=O)OC[C@@H]2C1 [Example 42, 4-methyl-5-[(3S,9aS)-8-{[4-methyl-6-(1H-tetrazol-1-yl)pyridin-3-yl]acety}octahydropyrazino[2,1-c][1,4]oxazin-3-yl]-2-benzofuran-1(3H)-one]	–	210
Cc1c([C@@H]2CN3CCN(C(=O)Cc4ccc(-n5cnnn5)nc4)C[C@H]3CO2)ccc2nonc12 [Example 177, (3R,9aS)-3-(4-methyl-2,1,3-benzoxadiazol-5-yl)-8-{[6-(1H-tetrazol-1-yl)pyridin-3-yl]acetyl}octahydropyrazino[2,1-c][1,4]oxazine]	250	–
Cc1c([C@@H]2CN3CCN(C(=O)Cc4ccc(-n5cnnn5)cn4)C[C@@H]3CO2)ccc(F)c1C#N [Example 32, 6-fluoro-2-methyl-3-[(3R,9aR)-8-{[5-(1H-tetrazol-1-yl)pyridin-2-yl]acetyl}octahydropyrazino[2,1-c][1,4]oxazin-3-yl]benzonitrile]	–	80
Cc1c([C@H]2CN3CCN(C(=O)Cc4ncc(-n5cnnn5)cc4Cl)C[C@H]3CO2)ccc(F)c1C#N [Example 153, 3-[(3S,9aS)-8-{[3-chloro-5-(1H-tetrazol-1-yl)pyridin-2-yl]acetyl}octahydropyrazino[2,1-c][1,4]oxazin-3-yl]-6-fluoro-2-methylbenzonitrile]	–	170
Cc1c(C#N)cncc1[C@@H]1CN2CCN(C(=O)Cc3ccc(-n4cnnn4)nc3)C[C@H]2CO1 [Example 74, 4-methyl-5-[(3R,9aS)-8-{[6-(1H-tetrazol-1-yl)pyridin-3-yl]acetyl}octahydropyrazino[2,1-c][1,4]oxazin-3-yl]pyridine-3-carbonitrile]	390	–
Cc1c([C@@H]2CN3CCN(C(=O)Cc4ccnc(-n5cnnn5)c4)C[C@H]3CO2)ccc(F)c1C#N [Example 99, 6-fluoro-2-methyl-3-[(3R,9aS)-8-{[2-(1H-tetrazol-1-yl)pyridin-4-yl]acetyl}octahydropyrazino[2,1-c][1,4]oxazin-3-yl]benzonitrile]	340	–
COc1c([C@H]2CN3CCN(C(=O)Cc4cnc(-n5cnnn5)nc4)C[C@H]3CO2)ccc(F)c1C#N [Example 139, 6-fluoro-2-methoxy-3-[(3S,9aS)-8-{[2-(1H-tetrazol-1-vl)pvrimidin-5-yl]acetyl}octahydropyrazino[2,1-c][1,4]oxazin-3-yl]benzonitrile]	160	–
Cc1nc(-n2cnnn2)ccc1CC(=O)N1CCN2C[C@@H](c3ccc4c(c3)CCOC4=O)OC[C@@H]2C1 [Example 30, 6-[(3R,9aS)-8-{[2-methyl-6-(1H-tetrazol-1-yl)pyridin-3-yl]acetyl}octahydropyrazino[2,1-c][1,4]oxazin-3-yl]-3,4-dihydro-1H-isochromen-1-one]	160	–
Cc1c([C@@H]2CN3CCN(C(=O)Cc4cnc(-n5cnnn5)cn4)C[C@H]3CO2)ccc(F)c1C#N [Example 75, 6-fluoro-2-methyl-3-[(3R,9aS)-8-{[5-(1H-tetrazol-1-yl)pyrazin-2-yl]acetyl}octahydropyrazino[2,1-c][1,4]oxazin-3-yl]benzonitrile]	–	130
Cc1c([C@H]2CN3CCN(C(=O)Cc4ccc(-n5cnnn5)nc4)C[C@H]3CCO2)ccc(F)c1C#N (single isomer, unassigned) [Example 169]	180	–
Cc1c(C#N)cccc1[C@H]1CN2CCN(C(=O)Cc3cnc(-n4cnnn4)nc3)C[C@H]2CO1 [Example 18, 2-methyl-3-[(3S,9aS)-8-{[2-(1H-tetrazol-1-yl)pyrimidin-5-yl]acetyl}octahydropyrazino[2,1-c][1,4]oxazin-3-yl]benzonitrile]	320	–
Cc1cc(CC(=O)N2CCN3C[C@H](c4ccc(F)c(C#N)c4C)OC[C@H]3C2)cnc1-n1cnnn1 [Example 134, 6-fluoro-2-methyl-3-[(3S,9aR)-8-{[5-methyl-6-(1H-tetrazol-1-yl)pyridin-3-yl]acetyl}octahydropyrazino[2,1-c][1,4]oxazin-3-yl]benzonitrile]	280	–
Cc1cc(-n2cnnn2)cnc1CC(=O)N1CCN2C[C@H](c3ccc(F)c(C#N)c3C)OC[C@@H]2C1 [Example 85, 6-fluoro-2-methyl-3-[(3S,9aS)-8-{[3-methyl-5-(1H-tetrazol-1-vl)pvridin-2-yl]acetyl}octahydropyrazino[2,1-c][1,4]oxazin-3-yl]benzonitrile]	–	240
Cc1nc(CC(=O)N2CCN3C[C@H](c4ccc(F)c(C#N)c4C)OC[C@H]3C2)ccc1-n1cnnn1 [Example 131, 6-fluoro-2-methyl-3-[(3S,9aR)-8-{[6-methyl-5-(1H-tetrazol-1-vl)pvridin-2-yl]acetul}octahydropyrazino[2,1-c][1,4]oxazin-3-yl]benzonitrile]	200	–
